In ChEMBL document CHEMBL3046728, “Modifications to five-substituted 3,3-diethyl-4,5-dihydro-2(3H)-furanones en route to novel muscarinic receptor ligands” (Med Chem Res, 2011):

These compounds were tested against Muscarinic acetylcholine receptor (Rattus norvegicus) (UniProt P08482+P08483+P08485+P08911+P10980) (assay: Displacement of [3H]-QNB from muscarnic receptor in Rattus norvegicus (rat) cerebral cortex at 10 uM after 90 min by scintillation counting analysis).
Type: tissue-based

| inhibition | Structure (SMILES) |
| --- | --- |
| 18% | CCC1(CC)CC(CN2CCN(c3ccc([N+](=O)[O-])cc3)CC2)OC1=O (stereo unspecified) |
| 16% | CCC1(CC)CC(CN2CCN(c3ccccc3)CC2)OC1=O (stereo unspecified) |
| 68% | CCC1(CC)CC(CN2CCC(c3ccccc3)CC2)OC1=O (stereo unspecified) |
| 44% | CCC1(CC)CC(CN2CCc3ccccc3C2)OC1=O (stereo unspecified) |
| 26% | CCC1(CC)CC(CN2CCN(c3ccc(OC)cc3)CC2)OC1=O (stereo unspecified) |
| 32% | CCC1(CC)CC(CN2CCN(c3ccccc3OC)CC2)OC1=O (stereo unspecified) |

Further lines, the compound ahead of its results:

| Structure (SMILES) | inhibition |
| --- | --- |
| CCC1(CC)CC(CN2CCN(C(c3ccccc3)c3ccccc3)CC2)OC1=O (stereo unspecified) | 97% |
| CCC1(CC)CC(CN2CCN(C(=O)c3ccccc3)CC2)OC1=O (stereo unspecified) | 5% |
| CCC1(CC)CC(COC(=O)Nc2ccc(N3CCCCC3)cc2)OC1=O (stereo unspecified) | 31% |
| CCC1(CC)CC(CN2CCN(c3ccccc3O)CC2)OC1=O (stereo unspecified) | 46% |
| CCC1(CC)CC(CN2CCN(c3ccc(O)cc3)CC2)OC1=O (stereo unspecified) | 7% |
| CCC1(CC)CC(CN2CCN(c3ccccc3C#N)CC2)OC1=O (stereo unspecified) | 31% |
| CCC1(CC)CC(CN2CCN(c3cccc(OC)c3)CC2)OC1=O (stereo unspecified) | 9% |
| CCC1(CC)CC(CN2CCC(c3nc4ccccc4[nH]3)CC2)OC1=O (stereo unspecified) | 46% |
| CCC1(CC)CC(CN2CCN(c3ccc(C#N)cc3)CC2)OC1=O (stereo unspecified) | 18% |

These compounds were tested against Muscarinic acetylcholine receptor (assay: Displacement of [3H]-QNB from muscarnic receptor in Rattus norvegicus (rat) cerebral cortex after 90 min by scintillation counting analysis).
Type: tissue-based

| IC50 | Structure (SMILES) |
| --- | --- |
| 340 nM | CCC1(CC)CC(CN2CCN(C(c3ccccc3)c3ccccc3)CC2)OC1=O (stereo unspecified) |
